Experiments:
Assay in all cases: KINOMEscan kinase binding assay (Eurofins/DiscoveRx), % Ctrl
kinases [1] = target: T1, kinases (Homo sapiens, UniProt P17948); details: 1 μM; target FLT1
T1 construct: purchased Eurofins/DiscoveRx; host or cells: E. coli BL21-derived host (T7 phage display) for most kinases; HEK-293 for the rest
Summary of the method: (§1)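 Read-out is qPCR of kinase eluted from ligand-coated streptavidin beads after 1 h room-temperature competition with test compound. Values are % Ctrl at the tested concentration, lower meaning tighter binding.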

kinases [2] = target: T2, kinases (Homo sapiens, UniProt P00519, T315I); details: 1 μM; for % Ctrl, ABL1(T315I)-nonphosphorylated: target ABL1(T315I)-nonphosphorylated; for % Ctrl, ABL1(T315I)-phosphorylated: target ABL1(T315I)-phosphorylated
T2 construct: purchased Eurofins/DiscoveRx; host or cells: E. coli BL21-derived host (T7 phage display) for most kinases; HEK-293 for the rest
Summary of the method: as §1

kinases [3] = target: T3, kinases (Homo sapiens, UniProt P00519, Q252H); details: 1 μM; for % Ctrl, ABL1(Q252H)-nonphosphorylated: target ABL1(Q252H)-nonphosphorylated; for % Ctrl, ABL1(Q252H)-phosphorylated: target ABL1(Q252H)-phosphorylated
T3 construct: purchased Eurofins/DiscoveRx; host or cells: E. coli BL21-derived host (T7 phage display) for most kinases; HEK-293 for the rest
Summary of the method: as §1

kinases [4] = target: T4, kinases (Homo sapiens, UniProt P42684); details: 1 μM; target ABL2
T4 construct: purchased Eurofins/DiscoveRx; host or cells: E. coli BL21-derived host (T7 phage display) for most kinases; HEK-293 for the rest
Summary of the method: as §1

kinases [5] = target: T5, kinases (Homo sapiens, UniProt P10721, T670I/V559D); details: 1 μM; target KIT(V559D, T670I)
T5 construct: purchased Eurofins/DiscoveRx; host or cells: E. coli BL21-derived host (T7 phage display) for most kinases; HEK-293 for the rest
T5 sequence (P10721 26-976 V559D/T670I): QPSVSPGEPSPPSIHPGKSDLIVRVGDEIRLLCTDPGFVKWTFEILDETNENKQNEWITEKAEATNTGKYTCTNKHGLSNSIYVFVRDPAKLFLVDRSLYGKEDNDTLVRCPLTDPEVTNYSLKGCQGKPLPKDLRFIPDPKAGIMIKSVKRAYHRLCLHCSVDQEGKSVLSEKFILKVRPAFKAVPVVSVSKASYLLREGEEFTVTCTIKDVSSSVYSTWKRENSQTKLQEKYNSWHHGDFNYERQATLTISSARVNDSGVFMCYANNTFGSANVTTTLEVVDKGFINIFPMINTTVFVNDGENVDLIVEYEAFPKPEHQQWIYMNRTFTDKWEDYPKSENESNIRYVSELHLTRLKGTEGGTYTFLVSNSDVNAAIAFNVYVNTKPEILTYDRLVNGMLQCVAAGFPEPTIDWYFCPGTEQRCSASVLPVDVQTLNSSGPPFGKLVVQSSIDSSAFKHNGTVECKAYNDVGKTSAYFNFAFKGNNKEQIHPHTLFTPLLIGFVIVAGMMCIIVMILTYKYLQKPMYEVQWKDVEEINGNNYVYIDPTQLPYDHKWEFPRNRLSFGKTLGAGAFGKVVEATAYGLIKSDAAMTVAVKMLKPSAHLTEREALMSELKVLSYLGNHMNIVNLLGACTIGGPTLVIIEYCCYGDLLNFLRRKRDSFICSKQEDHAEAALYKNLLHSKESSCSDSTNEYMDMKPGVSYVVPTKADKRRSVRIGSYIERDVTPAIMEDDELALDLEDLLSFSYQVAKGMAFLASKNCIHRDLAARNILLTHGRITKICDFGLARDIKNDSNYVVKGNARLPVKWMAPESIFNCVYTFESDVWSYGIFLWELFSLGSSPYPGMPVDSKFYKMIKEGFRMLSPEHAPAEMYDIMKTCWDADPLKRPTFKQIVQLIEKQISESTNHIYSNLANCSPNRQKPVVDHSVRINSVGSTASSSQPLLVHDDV
Summary of the method: as §1

kinases [6] = target: T6, kinases (Homo sapiens, UniProt P00519); details: 1 μM; for % Ctrl, ABL1-nonphosphorylated: target ABL1-nonphosphorylated; for % Ctrl, ABL1-phosphorylated: target ABL1-phosphorylated
T6 construct: purchased Eurofins/DiscoveRx; host or cells: E. coli BL21-derived host (T7 phage display) for most kinases; HEK-293 for the rest
Summary of the method: as §1

kinases [7] = target: T7, kinases (Homo sapiens, UniProt P35916); details: 1 μM; target FLT4
T7 construct: purchased Eurofins/DiscoveRx; host or cells: E. coli BL21-derived host (T7 phage display) for most kinases; HEK-293 for the rest
T7 sequence (P35916 25-1363): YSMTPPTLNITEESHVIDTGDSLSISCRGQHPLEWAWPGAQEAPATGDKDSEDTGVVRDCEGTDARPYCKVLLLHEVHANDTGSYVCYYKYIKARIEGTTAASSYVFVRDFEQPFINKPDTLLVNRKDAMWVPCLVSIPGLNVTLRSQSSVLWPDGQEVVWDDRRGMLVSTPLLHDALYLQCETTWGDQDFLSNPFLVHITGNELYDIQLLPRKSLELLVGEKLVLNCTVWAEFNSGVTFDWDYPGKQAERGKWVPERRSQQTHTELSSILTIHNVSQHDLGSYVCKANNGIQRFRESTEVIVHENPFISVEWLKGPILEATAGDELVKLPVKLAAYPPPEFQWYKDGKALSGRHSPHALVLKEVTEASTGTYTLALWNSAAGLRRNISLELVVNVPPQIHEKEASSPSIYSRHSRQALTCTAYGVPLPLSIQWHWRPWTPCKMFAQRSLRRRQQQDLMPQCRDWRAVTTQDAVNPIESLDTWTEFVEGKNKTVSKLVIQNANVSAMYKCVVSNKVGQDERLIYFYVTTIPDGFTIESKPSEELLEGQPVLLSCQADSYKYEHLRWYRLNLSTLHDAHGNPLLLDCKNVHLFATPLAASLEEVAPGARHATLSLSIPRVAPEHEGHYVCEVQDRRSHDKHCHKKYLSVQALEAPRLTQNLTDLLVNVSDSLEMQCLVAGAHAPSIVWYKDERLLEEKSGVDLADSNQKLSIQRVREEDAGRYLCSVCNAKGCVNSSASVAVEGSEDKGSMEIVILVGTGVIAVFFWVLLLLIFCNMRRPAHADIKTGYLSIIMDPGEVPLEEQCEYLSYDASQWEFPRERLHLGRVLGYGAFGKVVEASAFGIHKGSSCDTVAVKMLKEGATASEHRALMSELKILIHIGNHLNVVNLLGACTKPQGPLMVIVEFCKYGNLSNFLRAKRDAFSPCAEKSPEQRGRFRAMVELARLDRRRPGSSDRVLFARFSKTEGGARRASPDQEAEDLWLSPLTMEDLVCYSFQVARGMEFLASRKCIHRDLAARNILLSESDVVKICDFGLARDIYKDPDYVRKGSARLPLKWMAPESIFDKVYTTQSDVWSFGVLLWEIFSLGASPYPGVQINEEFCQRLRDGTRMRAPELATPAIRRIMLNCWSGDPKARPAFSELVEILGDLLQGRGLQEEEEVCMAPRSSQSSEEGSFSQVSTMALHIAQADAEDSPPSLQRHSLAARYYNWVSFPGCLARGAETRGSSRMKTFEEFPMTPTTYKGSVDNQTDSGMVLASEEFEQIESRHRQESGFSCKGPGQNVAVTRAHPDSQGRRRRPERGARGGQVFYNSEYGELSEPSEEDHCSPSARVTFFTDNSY
Summary of the method: as §1

kinases [8] = target: T8, kinases (Homo sapiens, UniProt P00519, E255K); details: 1 μM; target ABL1(E255K)-phosphorylated
T8 construct: purchased Eurofins/DiscoveRx; host or cells: E. coli BL21-derived host (T7 phage display) for most kinases; HEK-293 for the rest
Summary of the method: as §1

kinases [9] = target: T9, kinases (Homo sapiens, UniProt P00533, L858R/T790M); details: 1 μM; target EGFR(L858R, T790M)
T9 construct: purchased Eurofins/DiscoveRx; host or cells: E. coli BL21-derived host (T7 phage display) for most kinases; HEK-293 for the rest
Summary of the method: as §1

kinases [10] = target: T10, kinases (Homo sapiens, UniProt P00533, L858R); details: 1 μM; target EGFR(L858R)
T10 construct: purchased Eurofins/DiscoveRx; host or cells: E. coli BL21-derived host (T7 phage display) for most kinases; HEK-293 for the rest
Summary of the method: as §1

kinases [11] = target: T11, kinases (Homo sapiens, UniProt P07949, V804M); details: 1 μM; target RET(V804M)
T11 construct: purchased Eurofins/DiscoveRx; host or cells: E. coli BL21-derived host (T7 phage display) for most kinases; HEK-293 for the rest
T11 sequence (P07949 29-1114 V804M): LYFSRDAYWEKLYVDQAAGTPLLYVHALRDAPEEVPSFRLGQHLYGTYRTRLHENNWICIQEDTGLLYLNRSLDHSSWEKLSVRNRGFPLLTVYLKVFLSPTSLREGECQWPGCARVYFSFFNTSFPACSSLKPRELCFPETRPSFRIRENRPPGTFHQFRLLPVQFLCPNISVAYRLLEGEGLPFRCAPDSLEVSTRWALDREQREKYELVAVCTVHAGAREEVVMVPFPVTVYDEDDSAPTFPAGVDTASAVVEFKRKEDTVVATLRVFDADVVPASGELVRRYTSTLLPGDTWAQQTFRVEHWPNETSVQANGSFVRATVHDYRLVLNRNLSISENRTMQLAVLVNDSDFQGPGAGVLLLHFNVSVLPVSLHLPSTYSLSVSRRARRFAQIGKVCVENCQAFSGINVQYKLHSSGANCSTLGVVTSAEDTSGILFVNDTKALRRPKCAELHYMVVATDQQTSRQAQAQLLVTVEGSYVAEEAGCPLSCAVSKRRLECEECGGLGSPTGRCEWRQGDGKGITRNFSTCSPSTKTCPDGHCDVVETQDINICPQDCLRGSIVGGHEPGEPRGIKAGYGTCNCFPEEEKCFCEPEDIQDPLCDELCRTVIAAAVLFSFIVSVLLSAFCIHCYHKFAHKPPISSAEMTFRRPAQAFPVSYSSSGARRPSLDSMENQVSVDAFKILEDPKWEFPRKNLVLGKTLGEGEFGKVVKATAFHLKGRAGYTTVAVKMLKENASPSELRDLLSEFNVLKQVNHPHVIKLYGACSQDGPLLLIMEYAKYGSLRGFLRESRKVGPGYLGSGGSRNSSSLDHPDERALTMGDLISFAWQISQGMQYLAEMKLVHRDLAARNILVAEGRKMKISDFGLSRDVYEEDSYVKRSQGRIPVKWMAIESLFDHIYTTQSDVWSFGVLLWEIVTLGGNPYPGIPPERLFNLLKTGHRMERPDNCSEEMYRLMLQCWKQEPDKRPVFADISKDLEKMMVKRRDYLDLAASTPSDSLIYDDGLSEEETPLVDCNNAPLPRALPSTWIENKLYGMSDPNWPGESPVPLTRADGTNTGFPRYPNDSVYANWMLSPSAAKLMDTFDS
Summary of the method: as §1

kinases [12] = target: T12, kinases (Homo sapiens, UniProt P10721, D816V); details: 1 μM; target KIT(D816V)
T12 construct: purchased Eurofins/DiscoveRx; host or cells: E. coli BL21-derived host (T7 phage display) for most kinases; HEK-293 for the rest
T12 sequence (P10721 26-976 D816V): as the sequence (P10721 26-976 V559D/T670I) above, with D534V, I645T, D791V counted along it
Summary of the method: as §1

kinases [13] = target: T13, kinases (Homo sapiens, UniProt P00519, Y253F); details: 1 μM; target ABL1(Y253F)-phosphorylated
T13 construct: purchased Eurofins/DiscoveRx; host or cells: E. coli BL21-derived host (T7 phage display) for most kinases; HEK-293 for the rest
Summary of the method: as §1

kinases [14] = target: T14, kinases (Homo sapiens, UniProt P36888, D835Y); details: 1 μM; target FLT3(D835Y)
T14 construct: purchased Eurofins/DiscoveRx; host or cells: E. coli BL21-derived host (T7 phage display) for most kinases; HEK-293 for the rest
T14 sequence (P36888 27-993 D835Y): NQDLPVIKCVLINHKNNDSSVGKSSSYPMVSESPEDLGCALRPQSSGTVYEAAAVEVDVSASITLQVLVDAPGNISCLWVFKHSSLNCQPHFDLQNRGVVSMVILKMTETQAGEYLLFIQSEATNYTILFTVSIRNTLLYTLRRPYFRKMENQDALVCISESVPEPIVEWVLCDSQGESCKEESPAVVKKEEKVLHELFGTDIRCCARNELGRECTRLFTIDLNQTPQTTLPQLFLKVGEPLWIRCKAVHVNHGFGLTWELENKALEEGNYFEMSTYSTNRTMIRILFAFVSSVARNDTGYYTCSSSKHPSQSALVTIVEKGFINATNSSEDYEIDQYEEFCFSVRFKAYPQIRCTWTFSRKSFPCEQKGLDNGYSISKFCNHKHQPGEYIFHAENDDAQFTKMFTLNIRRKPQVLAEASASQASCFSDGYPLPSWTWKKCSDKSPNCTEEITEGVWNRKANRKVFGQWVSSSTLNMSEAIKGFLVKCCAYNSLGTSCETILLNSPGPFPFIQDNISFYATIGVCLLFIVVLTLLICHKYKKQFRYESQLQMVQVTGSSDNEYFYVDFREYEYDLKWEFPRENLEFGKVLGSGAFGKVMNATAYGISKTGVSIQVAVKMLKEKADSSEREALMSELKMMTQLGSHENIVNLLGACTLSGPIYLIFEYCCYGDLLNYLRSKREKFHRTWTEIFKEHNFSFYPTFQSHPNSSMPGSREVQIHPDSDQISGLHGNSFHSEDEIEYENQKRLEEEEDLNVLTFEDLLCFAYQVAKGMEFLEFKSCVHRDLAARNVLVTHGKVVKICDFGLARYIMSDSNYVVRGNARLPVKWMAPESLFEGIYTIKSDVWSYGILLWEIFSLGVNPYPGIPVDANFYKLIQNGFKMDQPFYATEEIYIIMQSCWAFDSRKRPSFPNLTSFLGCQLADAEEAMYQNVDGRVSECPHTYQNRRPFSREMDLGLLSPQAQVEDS
Summary of the method: as §1

kinases [15] = target: T15, kinases (Homo sapiens, UniProt P10721, V559D); details: 1 μM; target KIT(V559D)
T15 construct: purchased Eurofins/DiscoveRx; host or cells: E. coli BL21-derived host (T7 phage display) for most kinases; HEK-293 for the rest
T15 sequence (P10721 26-976 V559D): as the sequence (P10721 26-976 V559D/T670I) above, with I645T counted along it
Summary of the method: as §1

T1 sequence (P17948 27-1338): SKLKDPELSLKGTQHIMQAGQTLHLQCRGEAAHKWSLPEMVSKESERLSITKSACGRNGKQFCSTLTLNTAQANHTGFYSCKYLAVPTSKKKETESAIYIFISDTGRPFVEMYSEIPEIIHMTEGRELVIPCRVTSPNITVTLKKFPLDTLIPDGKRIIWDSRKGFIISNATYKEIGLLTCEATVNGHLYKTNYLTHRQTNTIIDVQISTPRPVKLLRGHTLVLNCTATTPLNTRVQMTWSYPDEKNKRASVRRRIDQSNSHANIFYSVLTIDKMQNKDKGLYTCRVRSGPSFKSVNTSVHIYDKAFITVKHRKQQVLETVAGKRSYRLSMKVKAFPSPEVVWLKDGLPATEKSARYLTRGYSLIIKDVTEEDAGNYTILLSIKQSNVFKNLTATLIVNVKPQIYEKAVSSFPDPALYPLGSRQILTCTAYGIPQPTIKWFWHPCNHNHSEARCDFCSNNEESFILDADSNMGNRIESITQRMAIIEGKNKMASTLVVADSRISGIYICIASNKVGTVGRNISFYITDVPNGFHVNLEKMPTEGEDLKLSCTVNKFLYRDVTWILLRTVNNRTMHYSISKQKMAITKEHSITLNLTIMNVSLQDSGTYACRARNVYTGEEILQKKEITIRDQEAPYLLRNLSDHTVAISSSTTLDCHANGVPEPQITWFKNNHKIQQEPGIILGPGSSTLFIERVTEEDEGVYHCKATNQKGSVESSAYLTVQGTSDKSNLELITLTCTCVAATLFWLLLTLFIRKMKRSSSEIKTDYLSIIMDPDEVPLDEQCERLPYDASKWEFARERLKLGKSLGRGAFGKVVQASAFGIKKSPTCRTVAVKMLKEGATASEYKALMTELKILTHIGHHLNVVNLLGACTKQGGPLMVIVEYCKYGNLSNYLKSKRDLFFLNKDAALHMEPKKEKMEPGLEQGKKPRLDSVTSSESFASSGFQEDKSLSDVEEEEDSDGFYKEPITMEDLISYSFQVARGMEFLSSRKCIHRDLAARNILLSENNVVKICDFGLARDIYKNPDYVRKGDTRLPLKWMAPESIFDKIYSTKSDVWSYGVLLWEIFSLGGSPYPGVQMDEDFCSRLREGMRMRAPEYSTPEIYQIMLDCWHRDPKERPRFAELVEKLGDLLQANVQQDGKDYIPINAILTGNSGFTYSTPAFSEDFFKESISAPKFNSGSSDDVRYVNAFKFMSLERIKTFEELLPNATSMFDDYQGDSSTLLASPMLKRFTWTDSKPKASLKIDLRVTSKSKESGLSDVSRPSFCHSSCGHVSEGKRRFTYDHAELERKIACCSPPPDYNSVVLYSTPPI

Row | SMILES | % Ctrl, FLT1 (kinases [1]) [% Ctrl] | % Ctrl, ABL1(T315I)-nonphosphorylated (kinases [2]) [% Ctrl] | % Ctrl, ABL1(T315I)-phosphorylated (kinases [2]) [% Ctrl] | % Ctrl, ABL1(Q252H)-nonphosphorylated (kinases [3]) [% Ctrl] | % Ctrl, ABL1(Q252H)-phosphorylated (kinases [3]) [% Ctrl] | % Ctrl, ABL2 (kinases [4]) [% Ctrl] | % Ctrl, KIT(V559D, T670I) (kinases [5]) [% Ctrl] | % Ctrl, ABL1-nonphosphorylated (kinases [6]) [% Ctrl] | % Ctrl, ABL1-phosphorylated (kinases [6]) [% Ctrl] | % Ctrl, FLT4 (kinases [7]) [% Ctrl] | % Ctrl, ABL1(E255K)-phosphorylated (kinases [8]) [% Ctrl] | % Ctrl, EGFR(L858R, T790M) (kinases [9]) [% Ctrl] | % Ctrl, EGFR(L858R) (kinases [10]) [% Ctrl] | % Ctrl, RET(V804M) (kinases [11]) [% Ctrl] | % Ctrl, KIT(D816V) (kinases [12]) [% Ctrl] | % Ctrl, ABL1(Y253F)-phosphorylated (kinases [13]) [% Ctrl] | % Ctrl, FLT3(D835Y) (kinases [14]) [% Ctrl] | % Ctrl, KIT(V559D) (kinases [15]) [% Ctrl]
1 | Cc1cc2c([nH]1)/C=C1\C(=O)Nc3ccc(cc31)-c1cnn(C)c1OCCCN(C)C2=O [Ex. 166, [3a(4)Z]-9,14-dimethyl-9,10,11,12-tetrahydro-14H-1,17-(ethanediylidene)pyrazolo[4,3-n]dipyrrolo[3,2-g:3′,4′-j][1,5]oxazacyclopentadecine-3,8(2H,5H)-dione] | 79 | 1.4 | 1.2 | 2.6 | 3.8 | 51 | 65 | 4.1 | 3.6 | 49 | 1.8 | 8.1 | 85 | 0.1 | 2.8 | 11 | 1.9 | 54
2 | Cc1cc2c([nH]1)/C=C1\C(=O)Nc3cnc(cc31)-c1cnn(C)c1CN(C)CCN(C)C2=O [Ex. 172, [3a(4)Z]-6,9,12,14-tetramethyl-9,10,11,12,13,14-hexahydro-17,1-(azenometheno)pyrazolo[4,3-m]dipyrrolo[3,2-f:3′,4′-i][1,4]diazacyclopentadecine-3,8(2H,5H)-dione] | 26 | 0 | 1.7 | 0.3 | 0.1 | 4.2 | 48 | 0.6 | 1.4 | 1.7 | 0.4 | 3.3 | 48 | 0.8 | 0.8 | 0.2 | 0.1 | 42

More lines, now with the values ahead:

Row | % Ctrl, FLT1 (kinases [1]) [% Ctrl] | % Ctrl, ABL1(T315I)-nonphosphorylated (kinases [2]) [% Ctrl] | % Ctrl, ABL1(T315I)-phosphorylated (kinases [2]) [% Ctrl] | % Ctrl, ABL1(Q252H)-nonphosphorylated (kinases [3]) [% Ctrl] | % Ctrl, ABL1(Q252H)-phosphorylated (kinases [3]) [% Ctrl] | % Ctrl, ABL2 (kinases [4]) [% Ctrl] | % Ctrl, KIT(V559D, T670I) (kinases [5]) [% Ctrl] | % Ctrl, ABL1-nonphosphorylated (kinases [6]) [% Ctrl] | % Ctrl, ABL1-phosphorylated (kinases [6]) [% Ctrl] | % Ctrl, FLT4 (kinases [7]) [% Ctrl] | % Ctrl, ABL1(E255K)-phosphorylated (kinases [8]) [% Ctrl] | % Ctrl, EGFR(L858R, T790M) (kinases [9]) [% Ctrl] | % Ctrl, EGFR(L858R) (kinases [10]) [% Ctrl] | % Ctrl, RET(V804M) (kinases [11]) [% Ctrl] | % Ctrl, KIT(D816V) (kinases [12]) [% Ctrl] | % Ctrl, ABL1(Y253F)-phosphorylated (kinases [13]) [% Ctrl] | % Ctrl, FLT3(D835Y) (kinases [14]) [% Ctrl] | % Ctrl, KIT(V559D) (kinases [15]) [% Ctrl] | SMILES
3 | 82 | 90 | 85 | 100 | 79 | 87 | 95 | 100 | 97 | 79 | 86 | 96 | 100 | 83 | 100 | 78 | 36 | 92 | Cc1cc2c([nH]1)/C=C1\C(=O)Nc3ccc(cc31)-c1c(noc1C(C)C)COCCN(C)C2=O [Ex. 161, [3a(4)Z]-9-methyl-16-(propan-2-yl)-10,11-dihydro-2H,13H-1,17-(ethanediylidene)[1,2]oxazolo[4,3-m]dipyrrolo[3,2-f:3′,4′-i][1,4]oxazacyclopentadecine-3,8(5H,9H)-dione]
4 | 13 | 0.6 | 1.4 | 0.1 | 0 | 2.3 | 2.4 | 0.1 | 0.1 | 0.2 | 0.1 | 80 | 45 | 2.1 | 3.3 | 0.1 | 0.5 | 6.9 | CN1CCOc2cc3c(cc2Cl)NC(=O)/C3=C\c2[nH]ccc2C(=O)N(C)CC1 [Ex. 164, [16a(17)Z]-19-chloro-2,5,8-trimethyl-5,6,7,8,9,10-hexahydro-12,14-(ethanediylidene)dipyrrolo[3,2-i:3′,4′-l][1,4,7]oxadiazacyclopentadecine-4,16(1H,15H)-dione]
5 | 12 | 0.3 | 0.1 | 0 | 0.3 | 0.3 | 1.6 | 0 | 0 | 0.1 | 0.3 | 37 | 52 | 0.9 | 1.6 | 0.1 | 1.6 | 1.2 | Cc1cc2c([nH]1)/C=C1\C(=O)Nc3cc(Cl)c(cc31)SCCOCCN(C)C2=O [Ex. 169, [16a(17)Z]-19-chloro-5-methyl-6,7,9,10-tetrahydro-1H-12,14-(ethanediylidene)dipyrrolo[3,4-g:2′,3′-j][1,4,13]oxathiazacyclopentadecine-4,16(5H,15H)-dione]

Reference: patent publication US20230257396A1, “MACROCYCLES AND THEIR USE” (BLOSSOMHILL THERAPEUTICS, INC., priority 2020, published 2023)
